In experiment [1] the test system is beneficial oral bacteria and pathogenic oral bacteria. As to the kind of experiment: Microarray screen, conclusion over the panel. The experiment is classed as cell-based. Conditions: at 24 hrs and at 48 hrs; threshold 2. The procedure: Substrates that were able to increase the metabolic activity of at least one of the above beneficial bacteria while not or only minimally increasing the growth of the pathogenic bacteria are considered to be prebiotic substrates. The extent of metabolic activity of the tested bacteria in the presence of the above-mentioned glycosides after 24 hours and 48 hours was investigated through a high throughput phenotype microarray system (PM) for microbial cells (Biolog Inc.). Each PM can contain up to 95 different biochemical compounds (e.g. glycosides) that may act as substrates for bacteria as well as one negative control, not containing the substrates. Microarray plates were used in which the different wells of each plate were pre-loaded (by the manufacturer, Biolog Inc.) with different glycosides to be tested. […] Color changes were measured spectrophotometrically at 492 nm (Thermo Scientific Multiskan Ascent) at 24 hrs and 48 hrs using the same plate at both time points. […] After 24 hrs and 48 hrs under continuous shaking in a Multiscan microplate reader, the optical density (OD) of the synthetic medium at 24 hours and 48 hours was measured (using the microplate reader) at a wavelength of 492 nm for each combination of bacterium/glycoside, and for each of their respective controls (i.e. which contained the particular bacterium but no glycosides). […]

Experiment [2] relates to beneficial oral and pathogenic oral bacteria. In words: Twenty-four hour optical density, conclusion over the panel. It counts as cell-based. Conditions: at concentrations of 10, 20 and 25 μmol/ml; threshold 1.25. An excerpt:
Substrates that were able to increase the growth (or maximal growth density or extent of growth) of at least one of the above beneficial bacteria while not or only minimally increasing the growth (or maximal growth density) of the pathogenic bacteria are considered to be prebiotic compounds. The extent of growth of the tested bacteria in response to selected glycosides (β-methyl-D-galactoside and α-methyl-D-galactoside) was investigated by setting up growth curves in a nutritionally rich medium (brain heart infusion broth (BHI), Oxoid), over 24 hours. […] For each combination of bacterium/glycoside, and for each of their respective controls (i.e. the particular bacterium in the nutritionally rich medium with no glycoside), the optical density was measured at 630 nm (OD630) at 0 h and 24 h (Thermo Scientific Multiskan Ascent). Additionally, the OD630 for combinations of bacterium/glycosides grown in a 5% CO2 environment were also measured every hour between 0 h and 9 h. […] For each day and for each combination, the average (mean) of the values obtained (as detailed above) for the four technical replicas was calculated to provide a single value for each combination on each day. […]

For the compound `CO[C@H]1O[C@H](CO)[C@H](O)[C@H](O)[C@H]1O` [α-methyl-D-galactoside], the “prebiotic effect (metabolic activity), in words” value in experiment [1] is recorded as “exhibited prebiotic effects”.
Regarding `CO[C@@H]1O[C@H](CO)[C@H](O)[C@H](O)[C@H]1O` [β-methyl-D-galactoside], in experiment [2], the “prebiotic effect (extent of growth), in words” value is “exhibited prebiotic effects”. For the same compound, the “prebiotic effect (metabolic activity), in words” value in experiment [1] is reported as “exhibited prebiotic effects”.

The values above are taken from US10307357B2, “Prebiotic oral care compositions containing an alkyl glycoside” (COLGATE-PALMOLIVE COMPANY, priority 2013, dated 2019).
